In the supplement of paper PMC11061612:

What was measured:
[1] = tested on: MRK-nu-1 (Breast Carcinoma); test: combination Emax (second highest fraction inhibited in the dose matrix, 72 h); higher = more inhibition; extreme values may be limits of the assay
Procedure, shortened: (§1)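 Cell lines in DMEM/F12 or RPMI with 10% FBS were plated in 1536-well plates, held 24 hours at 37°C, 5% CO2, then given two-drug dose matrices for 72 hours (DMSO typically 0.2%). Viability was read by CellTiter-Glo 2.0 luminescence and scaled as inhibition from 0 (vehicle wells) to 1 (blank wells). Combination Emax is the second-highest inhibition in the matrix; Bliss excess is observed combination effect minus expected EA + EB − EA·EB, EA and EB being single-agent effects.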

[2] = tested on: JJN-3 (Plasma Cell Myeloma); test: as above
Procedure, shortened: as §1

[3] = tested on: NCI-H2023 (Non-Small Cell Lung Carcinoma); test: as above
Procedure, shortened: as §1

[4] = tested on: SBC-3 (Small Cell Lung Carcinoma); test: as above
Procedure, shortened: as §1

[5] = tested on: NCI-H1048 (Small Cell Lung Carcinoma); test: as above
Procedure, shortened: as §1

[6] = tested on: SNU-1 (Gastric Carcinoma); test: as above
Procedure, shortened: as §1

A375 (Melanoma) = test: as above
Procedure, shortened: as §1

[7] = tested on: SW1463 (Colorectal Carcinoma); test: as above
Procedure, shortened: as §1

MG-63 (Osteosarcoma) = test: as above
Procedure, shortened: as §1

[8] = tested on: NCI-H1648 (Lung Adenocarcinoma); test: as above
Procedure, shortened: as §1

[9] = tested on: HT-3 (Cervical Carcinoma); test: as above
Procedure, shortened: as §1

[10] = tested on: OVKATE (Ovarian Carcinoma); test: as above
Procedure, shortened: as §1

[11] = tested on: CAL-85-1 (Breast Carcinoma); test: as above
Procedure, shortened: as §1

[12] = tested on: NCI-H2009 (Lung Adenocarcinoma); test: Bliss excess, mean over the matrix (fraction); higher = more synergy
Procedure, shortened: as §1

[13] = tested on: JURL-MK1 (Chronic Myelogenous Leukemia); test: as above
Procedure, shortened: as §1

[14] = tested on: NCI-H1975 (Lung Adenocarcinoma); test: as above
Procedure, shortened: as §1

[15] = tested on: RPMI-8402 (T-Lymphoblastic Leukemia); test: as above
Procedure, shortened: as §1

[16] = tested on: SNU-1 (Gastric Carcinoma); test: as above
Procedure, shortened: as §1

SK-MEL-24 (Melanoma) = test: as above
Procedure, shortened: as §1

[17] = tested on: NCI-H1648 (Lung Adenocarcinoma); test: as above
Procedure, shortened: as §1
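For Bliss excess, mean over the matrix in this document: after 72 h of two-drug dosing.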

| SMILES | combination Emax [1] | combination Emax [2] | combination Emax [3] | combination Emax [4] | combination Emax [5] | combination Emax [6] | combination Emax (A375 (Melanoma)) | combination Emax [7] | combination Emax (MG-63 (Osteosarcoma)) | combination Emax [8] | combination Emax [9] | combination Emax [10] | combination Emax [11] | Bliss excess [12] | Bliss excess [13] | Bliss excess [14] | Bliss excess [15] | Bliss excess [16] | Bliss excess (SK-MEL-24 (Melanoma)) | Bliss excess [17] |
| --- | --- | --- | --- | --- | --- | --- | --- | --- | --- | --- | --- | --- | --- | --- | --- | --- | --- | --- | --- | --- |
| CC1(C)CCC(CN2CCN(c3ccc(C(=O)NS(=O)(=O)c4ccc(NCC5CCOCC5)c([N+](=O)[O-])c4)c(Oc4cnc5[nH]ccc5c4)c3)CC2)=C(c2ccc(Cl)cc2)C1 [Venetoclax] + Cc1cc2ncnn2cc1Nc1ncc2c(n1)n(C1CCOCC1)c(=O)n2C [AZD7648] (first compound max 1 µM, 7x7, partner max 10 µM) | 0.523 | 0.327 | 0.392 | 0.543 | 0.59 | 0.288 | 0.233 | 0.0854 | 0.201 | 0.43 | 0.135 | 0.28 | 0.284 | -0.053 | -0.0068 | -0.0114 | 0.0235 | -0.0408 | -0.0553 | -0.0431 |
| CC1(C)CCC(CN2CCN(c3ccc(C(=O)NS(=O)(=O)c4ccc(NCC5CCOCC5)c([N+](=O)[O-])c4)c(Oc4cnc5[nH]ccc5c4)c3)CC2)=C(c2ccc(Cl)cc2)C1 [Venetoclax] + Cn1cnc2c(F)c(Nc3ccc(Br)cc3Cl)c(C(=O)NOCCO)cc21 [Selumetinib] (first compound max 1 µM, 7x7, partner max 3 µM) | 0.235 | 0.462 | 0.177 | 0.605 | 0.153 | 0.221 | 0.686 | 0.352 | 0.148 | 0.496 | 0.118 | 0.217 | 0.356 | -0.024 | -0.0249 | -0.0631 | -0.031 | -0.0541 | -0.0001 | -0.0379 |
